Values joined by “and” are separate entries in the source; they are usually repeats but may differ in a detail not shown here. Identical values can stand only once. Inconclusive results and toxic doses are left out. How the source made its calls: active means survival T/C of 150% or more; inactive means T/C below 125% in these data.
Tested on: CD2F1 mice, L1210 leukemia ip, survival T/C
Assay: NCI In Vivo Anticancer Drug Screen. Data for tumor model L1210 Leukemia (intraperitoneal) in CD2F1 (CDF1) mice
Settings: higher = longer survival
Outline: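 Read-out first: treated-group measurement over vehicle-control measurement, expressed as a ratio. Animals bore a transplanted tumor line and were dosed with compound or vehicle.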

[1] = endpoint: mean survival time, dose: 25.0 mg/kg/injection, schedule: Q04DX003 (ip), vehicle: saline
[2] = endpoint: mean survival time, dose: 200.0 mg/kg/injection, schedule: Q01DX009 (ip), vehicle: saline with Tween-80
[3] = endpoint: mean survival time, dose: 200.0 mg/kg/injection, schedule: Q04DX003 (ip), vehicle: saline with Tween-80
[4] = endpoint: mean survival time, dose: 400.0 mg/kg/injection, schedule: Q04DX003 (ip), vehicle: saline with Tween-80
[5] = endpoint: mean survival time, dose: 100.0 mg/kg/injection, schedule: Q01DX009 (ip), vehicle: saline with Tween-80
[6] = endpoint: mean survival time, dose: 100.0 mg/kg/injection, schedule: Q04DX003 (ip), vehicle: saline with Tween-80
[7] = endpoint: mean survival time, dose: 75.0 mg/kg/injection, schedule: Q04DX003 (ip), vehicle: saline
[8] = endpoint: mean survival time, dose: 150.0 mg/kg/injection, schedule: Q04DX003 (ip), vehicle: saline
[9] = endpoint: mean survival time, dose: 300.0 mg/kg/injection, schedule: Q04DX003 (ip), vehicle: saline
[10] = endpoint: mean survival time, dose: 12.5 mg/kg/injection, schedule: Q01DX009 (ip), vehicle: water
[11] = endpoint: mean survival time, dose: 25.0 mg/kg/injection, schedule: Q01DX009 (ip), vehicle: water
[12] = endpoint: mean survival time, dose: 50.0 mg/kg/injection, schedule: Q01DX009 (ip), vehicle: water
[13] = endpoint: mean survival time, dose: 100.0 mg/kg/injection, schedule: Q01DX009 (ip), vehicle: water
[14] = endpoint: mean survival time, dose: 200.0 mg/kg/injection, schedule: Q01DX009 (ip), vehicle: water
[15] = endpoint: mean survival time, dose: 12.5 mg/kg/injection, schedule: Q01DX009 (ip), vehicle: Klucel (hydroxypropylcellulose) (HPC)
[16] = endpoint: mean survival time, dose: 25.0 mg/kg/injection, schedule: Q01DX009 (ip), vehicle: Klucel (hydroxypropylcellulose) (HPC)
[17] = endpoint: mean survival time, dose: 100.0 mg/kg/injection, schedule: Q01DX009 (ip), vehicle: Klucel (hydroxypropylcellulose) (HPC)
[18] = endpoint: mean survival time, dose: 200.0 mg/kg/injection, schedule: Q01DX009 (ip), vehicle: Klucel (hydroxypropylcellulose) (HPC)
[19] = endpoint: mean survival time, dose: 100.0 mg/kg/injection, schedule: Q04DX002 (ip), vehicle: saline with Tween-80
[20] = endpoint: mean survival time, dose: 200.0 mg/kg/injection, schedule: Q04DX002 (ip), vehicle: saline with Tween-80

Measured: T/C

CN1CCCN(C(=S)S)CC1
inactive: [1] 98 % of control | endpoint: mean survival time, dose: 50.0 mg/kg/injection, schedule: Q04DX003 (ip), vehicle: saline 103 % of control | endpoint: mean survival time, dose: 100.0 mg/kg/injection, schedule: Q04DX003 (ip), vehicle: saline 103 % of control

CC1=C(C)C2(C)C(C)(O)C(C)(O)C12C (stereo not given)
inactive: endpoint: mean survival time, dose: 18.75 mg/kg/injection, schedule: Q01DX009 (ip), vehicle: saline with Tween-80 98 % of control | endpoint: mean survival time, dose: 37.5 mg/kg/injection, schedule: Q01DX009 (ip), vehicle: saline with Tween-80 93 % of control | endpoint: mean survival time, dose: 75.0 mg/kg/injection, schedule: Q01DX009 (ip), vehicle: saline with Tween-80 96 % of control

NC(=O)N/N=C/c1cccs1
inactive: endpoint: mean survival time, dose: 50.0 mg/kg/injection, schedule: Q01DX009 (ip), vehicle: saline with Tween-80 89 % of control | [2] 97 % of control | [3] 87 % of control | [4] 91 % of control

COc1ccc(/C=C/c2ccc3ccccc3n2)c(OC)c1
inactive: [5] 96 % of control | [6] 96 % of control | [2] 102 % of control | [3] 96 % of control | endpoint: mean survival time, dose: 400.0 mg/kg/injection, schedule: Q01DX009 (ip), vehicle: saline with Tween-80 95 % of control | [4] 96 % of control

C/C=C(\C)c1cc(=O)c2c(C)cc3c(c2o1)C(=O)c1c(O)c(C2CC(C)(N(C)C)C(O)C(C)O2)cc(C2CC(N(C)C)C(O)C(C)O2)c1C3=O (stereo not given)
inactive: endpoint: mean survival time, dose: 0.38 mg/kg/injection, schedule: Q01DX009 (ip), vehicle: saline 102 % of control | endpoint: mean survival time, dose: 0.62 mg/kg/injection, schedule: Q01DX009 (ip), vehicle: saline 115 % of control | endpoint: mean survival time, dose: 0.63 mg/kg/injection, schedule: Q01DX009 (ip), vehicle: saline 116 % of control | endpoint: mean survival time, dose: 0.75 mg/kg/injection, schedule: Q01DX009 (ip), vehicle: saline 109 % of control | endpoint: mean survival time, dose: 1.25 mg/kg/injection, schedule: Q01DX009 (ip), vehicle: saline 113 % of control and 105 % of control | endpoint: mean survival time, dose: 1.5 mg/kg/injection, schedule: Q01DX009 (ip), vehicle: saline 113 % of control | endpoint: mean survival time, dose: 3.0 mg/kg/injection, schedule: Q01DX009 (ip), vehicle: saline 107 % of control | endpoint: mean survival time, dose: 3.13 mg/kg/injection, schedule: Q01DX009 (ip), vehicle: saline with Tween-80 98 % of control | endpoint: mean survival time, dose: 31.25 micrograms/kg/injection, schedule: Q01DX009 (ip), vehicle: saline 103 % of control | endpoint: mean survival time, dose: 62.5 micrograms/kg/injection, schedule: Q01DX009 (ip), vehicle: saline 115 % of control | endpoint: mean survival time, dose: 125.0 micrograms/kg/injection, schedule: Q01DX009 (ip), vehicle: saline 111 % of control | endpoint: mean survival time, dose: 156.25 micrograms/kg/injection, schedule: Q01DX009 (ip), vehicle: saline 119 % of control | endpoint: mean survival time, dose: 250.0 micrograms/kg/injection, schedule: Q01DX009 (ip), vehicle: saline 115 % of control | endpoint: mean survival time, dose: 500.0 micrograms/kg/injection, schedule: Q01DX009 (ip), vehicle: saline 115 % of control | endpoint: mean survival time, dose: 625.0 micrograms/kg/injection, schedule: Q01DX009 (ip), vehicle: saline 104 % of control | endpoint: mean survival time, dose: 1000.0 micrograms/kg/injection, schedule: Q01DX009 (ip), vehicle: saline 105 % of control | endpoint: mean survival time, dose: 1250.0 micrograms/kg/injection, schedule: Q01DX009 (ip), vehicle: saline 120 % of control | endpoint: mean survival time, dose: 2500.0 micrograms/kg/injection, schedule: Q01DX009 (ip), vehicle: saline 95 % of control | endpoint: median survival time, dose: 3.13 mg/kg/injection, schedule: Q01DX001 (ip), vehicle: saline with Tween-80 111 % of control | endpoint: median survival time, dose: 6.25 mg/kg/injection, schedule: Q01DX001 (ip), vehicle: saline with Tween-80 111 % of control | endpoint: median survival time, dose: 12.5 mg/kg/injection, schedule: Q01DX001 (ip), vehicle: saline with Tween-80 122 % of control | endpoint: median survival time, dose: 25.0 mg/kg/injection, schedule: Q01DX001 (ip), vehicle: saline with Tween-80 111 % of control

NC(CSC1(c2ccc(Cl)cc2)c2ccccc2-c2ccccc21)C(=O)O (stereo not given)
inactive: endpoint: mean survival time, dose: 25.0 mg/kg/injection, schedule: Q01DX009 (ip), vehicle: saline 100 % of control | endpoint: mean survival time, dose: 50.0 mg/kg/injection, schedule: Q01DX009 (ip), vehicle: saline 96 % of control | endpoint: mean survival time, dose: 100.0 mg/kg/injection, schedule: Q01DX009 (ip), vehicle: saline 96 % of control

CCSCCCCO
inactive: [7] 97 % of control | [8] 103 % of control | [9] 98 % of control

O=C(O)CCCSc1nn(C2OC(CO)C(O)C2O)c(=O)[nH]c1=O (stereo not given)
inactive: endpoint: mean survival time, dose: 12.5 mg/kg/injection, schedule: Q01DX005 (ip), vehicle: water 104 % of control | endpoint: mean survival time, dose: 25.0 mg/kg/injection, schedule: Q01DX005 (ip), vehicle: water 104 % of control | endpoint: mean survival time, dose: 50.0 mg/kg/injection, schedule: Q01DX005 (ip), vehicle: water 104 % of control | endpoint: mean survival time, dose: 100.0 mg/kg/injection, schedule: Q01DX005 (ip), vehicle: water 101 % of control | endpoint: mean survival time, dose: 200.0 mg/kg/injection, schedule: Q01DX005 (ip), vehicle: water 101 % of control

CCCCCCCCCCCCCCCC(=O)N1CCCN(C(=O)CCCCCCCCCCCCCCC)C1
inactive: [7] 89 % of control | [8] 89 % of control | [9] 103 % of control

COc1cccc(C(=O)c2ccncc2C)c1OC
inactive: [10] 89 % of control | [11] 93 % of control | [12] 93 % of control | [13] 93 % of control | [14] 96 % of control

NC(C(=O)O)C(O)c1cnc[nH]1 (stereo not given)
inactive: [10] 96 % of control | [11] 100 % of control | [12] 100 % of control | [13] 104 % of control | [14] 102 % of control

c1ccc2c[n+]3cc4ccccc4cc3cc2c1
inactive: endpoint: mean survival time, dose: 12.5 mg/kg/injection, schedule: Q04DX003 (ip), vehicle: saline 104 % of control | [1] 97 % of control

CCOC(CN(N=O)c1ccccc1C(C)C)OCC
inactive: [5] 98 % of control | [6] 103 % of control | [2] 93 % of control | [3] 98 % of control | [4] 97 % of control

CCOC(=O)C1CC(c2ccccc2)=NN1c1ccccc1 (stereo not given)
inactive: [15] 95 % of control | [16] 101 % of control | endpoint: mean survival time, dose: 50.0 mg/kg/injection, schedule: Q01DX009 (ip), vehicle: Klucel (hydroxypropylcellulose) (HPC) 102 % of control | [17] 101 % of control | [18] 95 % of control | endpoint: mean survival time, dose: 400.0 mg/kg/injection, schedule: Q01DX009 (ip), vehicle: Klucel (hydroxypropylcellulose) (HPC) 98 % of control

Cc1nn(-c2ccccc2)c2c1C(=O)NC2Cc1ccccc1 (stereo not given)
inactive: endpoint: mean survival time, dose: 50.0 mg/kg/injection, schedule: Q04DX002 (ip), vehicle: saline with Tween-80 103 % of control | [19] 100 % of control | [20] 100 % of control

CN(C)S(=O)(=O)c1cc(Cl)ccc1NN
inactive: [6] 98 % of control | [3] 104 % of control | [4] 104 % of control

CCOC(=O)CC1(c2ccccc2)OC(=O)c2ccccc21 (stereo not given)
inactive: [19] 102 % of control | [20] 87 % of control | endpoint: mean survival time, dose: 400.0 mg/kg/injection, schedule: Q04DX002 (ip), vehicle: saline with Tween-80 87 % of control

O=C1/C(=C\c2ccc(Cl)cc2)SC(=S)N1/N=C/c1ccc(Cl)cc1
inactive: endpoint: mean survival time, dose: 25.0 mg/kg/injection, schedule: Q01DX001 (ip), vehicle: saline with Tween-80 97 % of control | endpoint: mean survival time, dose: 50.0 mg/kg/injection, schedule: Q01DX001 (ip), vehicle: saline with Tween-80 94 % of control | endpoint: mean survival time, dose: 100.0 mg/kg/injection, schedule: Q01DX001 (ip), vehicle: saline with Tween-80 90 % of control | endpoint: mean survival time, dose: 200.0 mg/kg/injection, schedule: Q01DX001 (ip), vehicle: saline with Tween-80 87 % of control

Cc1cccc(Cl)c1NC1=NCCO1
inactive: endpoint: mean survival time, dose: 6.25 mg/kg/injection, schedule: Q04DX003 (ip), vehicle: saline with Tween-80 100 % of control | endpoint: mean survival time, dose: 12.5 mg/kg/injection, schedule: Q04DX003 (ip), vehicle: saline with Tween-80 100 % of control | endpoint: mean survival time, dose: 25.0 mg/kg/injection, schedule: Q04DX003 (ip), vehicle: saline with Tween-80 111 % of control

Cc1c(O)c2c(c(O)c1Cc1ccc(C#N)cc1)C(=O)c1ccccc1C2=O
inactive: [15] 91 % of control | [16] 96 % of control | [17] 90 % of control | [18] 94 % of control
